# According to patent publication US20250230193A1, “CYCLIC COMPOUND HAVING SELECTIVE KRAS INHIBITORY EFFECT ON HRAS AND NRAS” (CHUGAI SEIYAKU KABUSHIKI KAISHA, priority 2022, published 2025):
# Where a SMILES comes first, the peptide text is derived from it. Bridges are numbered along the chain shown (N, C = ends). [ ]: non-standard residue; d: D form. The star is where a group is joined. hPhe(3-Cl-4-CF3) = N[C@@H](CCc1ccc(C(F)(F)F)c(Cl)c1)C(=O)O; NPrPhe(4-CF3) = CCCN[C@@H](Cc1ccc(C(F)(F)F)cc1)C(=O)O; NMePhe(4-Me) = CN[C@@H](Cc1ccc(C)cc1)C(=O)O; NMeGly(cPent) = CN[C@H](C(=O)O)C1CCCC1; Pro(4,4-F2) = O=C(O)[C@@H]1CC(F)(F)CN1; NMeD = CN[C@@H](CC(=O)O)C(=O)O; NMeL = CN[C@@H](CC(C)C)C(=O)O; Morpholide = C1CN(*)CCO1; NMeA = CN[C@@H](C)C(=O)O; Ac5c = NC1(C(=O)O)CCCC1; Aze = O=C(O)[C@@H]1CCN1; NBuGly = CCCCNCC(=O)O; Sar = CNCC(=O)O
# Legend:
# [1] = target: GDP-bound NRAS wild-type protein (Homo sapiens, UniProt P01111); assay: Binding to NRAS by surface plasmon resonance (SPR), Single Cycle Kinetics
# [2] = target: GDP-bound HRAS wild-type protein (Homo sapiens, UniProt P01112); assay: Binding to HRAS by surface plasmon resonance (SPR), Single Cycle Kinetics
# [3] = SPR, GDP-bound NRAS wild-type vs GDP-bound KRAS wild-type
# [4] = SPR, GDP-bound HRAS wild-type vs GDP-bound KRAS wild-type
# GDP-bound HRAS wild-type protein, sequence (P01112 whole entry): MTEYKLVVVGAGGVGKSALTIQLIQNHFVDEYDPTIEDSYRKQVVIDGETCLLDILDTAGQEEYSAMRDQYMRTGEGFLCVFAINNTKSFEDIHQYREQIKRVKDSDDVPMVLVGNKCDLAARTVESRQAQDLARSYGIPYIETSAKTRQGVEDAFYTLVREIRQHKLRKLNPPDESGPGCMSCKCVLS
# GDP-bound NRAS wild-type protein, sequence (P01111 whole entry): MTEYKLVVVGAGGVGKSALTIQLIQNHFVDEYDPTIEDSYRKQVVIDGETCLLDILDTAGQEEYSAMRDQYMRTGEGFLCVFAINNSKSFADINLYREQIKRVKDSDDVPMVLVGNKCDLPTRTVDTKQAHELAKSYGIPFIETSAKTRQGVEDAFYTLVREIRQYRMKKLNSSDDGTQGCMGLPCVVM
structure (smiles),measurement,setting,value
CCO[C@@H]1C[C@H]2C(=O)NC3(CCC3)C(=O)N(C)[C@@H](C3CCCC3)C(=O)N(C)[C@H](C(=O)N(CC)CC)CC(=O)N(C)[C@@H](C)C(=O)N[C@@H]([C@@H](C)CC)C(=O)N(C)CC(=O)N(C)[C@H]3C/C=C\CCN(C3=O)[C@@H](Cc3ccc(C(F)(F)F)cc3)C(=O)N(C)CC(=O)N[C@@H](CCc3cc(F)c(C(F)(F)F)c(F)c3)C(=O)N2C1 [PP1308],NRAS/KRAS (ratio of KD value for GDP-bound NRAS wild-type protein to KD value for KRAS),"[1]; SPR, KD ratio class",A (a compound having 10 or more and less than 20 is denoted as A)
same,HRAS/KRAS (ratio of KD value for GDP-bound HRAS wild-type protein to KD value for KRAS),"[2]; SPR, KD ratio class",A (a compound having 10 or more and less than 20 is denoted as A)
CCC[C@H]1C(=O)N[C@@H]([C@@H](C)CC)C(=O)N(CCC)CC(=O)N(C)[C@H]2C/C=C\CCN(C2=O)[C@@H](Cc2ccc(C)cc2)C(=O)N(C)CC(=O)N[C@@H](CCc2ccc(C(F)(F)F)c(OC)c2)C(=O)N2C[C@H](OCC)C[C@H]2C(=O)NC2(CC(C)(C)C2)C(=O)N(C)[C@@H](C2CCCC2)C(=O)N(C)[C@H](C(=O)N(C)C)CC(=O)N1C [PP2054],NRAS/KRAS (ratio of KD value with respect to NRAS to KD value with respect to KRAS),[1]; [3],A (a compound having 10 or more and less than 20 is denoted as A)
same,HRAS/KRAS (ratio of KD value with respect to HRAS to KD value with respect to KRAS),[2]; [4],A (a compound having 10 or more and less than 20 is denoted as A)
CCO[C@@H]1C[C@H]2C(=O)NC3(CC(C)(C)C3)C(=O)N(C)[C@@H](C(CC)CC)C(=O)N(C)[C@H](C(=O)N(C)C)CC(=O)N(C)[C@@H](C(C)C)C(=O)N[C@@H]([C@@H](C)CC)C(=O)N(C)CC(=O)N(C)[C@H]3C/C=C\CCN(C3=O)[C@@H](CC3CCC(F)(F)CC3)C(=O)N(C)CC(=O)N[C@@H](CCc3ccc(C(F)(F)F)c(OC)c3)C(=O)N2C1 [PP2477],NRAS/KRAS (ratio of KD value with respect to NRAS to KD value with respect to KRAS),[1]; [3],A (a compound having 10 or more and less than 20 is denoted as A)
same,HRAS/KRAS (ratio of KD value with respect to HRAS to KD value with respect to KRAS),[2]; [4],A (a compound having 10 or more and less than 20 is denoted as A)
CCO[C@@H]1C[C@H]2C(=O)NC3(CCC3)C(=O)N(C)[C@@H](C3CCCC3)C(=O)N(C)[C@H](C(=O)N(C)CC)CC(=O)N(C)[C@@H](C3CC3)C(=O)N[C@@H]([C@@H](C)CC)C(=O)N(C)CC(=O)N(C)[C@H]3C/C=C\CCN(C3=O)[C@@H](Cc3ccc(C(F)(F)F)cc3)C(=O)N(C)CC(=O)N[C@@H](CCc3ccc(C(F)(F)F)c(OC)c3)C(=O)N2C1 [PP2021],NRAS/KRAS (ratio of KD value for NRAS to KD value for KRAS),"[1]; KD ratio, GDP-bound NRAS wild-type vs GDP-bound KRAS wild-type, SPR",A (a compound having 10 or more and less than 20 is denoted as A)
same,HRAS/KRAS (ratio of KD value for HRAS to KD value for KRAS),"[2]; KD ratio, GDP-bound HRAS wild-type vs GDP-bound KRAS wild-type, SPR",B (a compound having 3 or more and less than 10 is denoted as B)
CCC[C@H]1C(=O)N[C@@H]([C@@H](C)CC)C(=O)N(C2CC2)CC(=O)N(C)[C@H]2C/C=C\CCN(C2=O)[C@@H](Cc2ccc(C)cc2)C(=O)N(C)CC(=O)N[C@@H](CCc2cc(F)c(C(F)(F)F)c(F)c2)C(=O)N2C[C@H](OC(C)C)C[C@H]2C(=O)NC2(CC(C)(C)C2)C(=O)N(C)[C@@H](C2CCCC2)C(=O)N(C)[C@H](C(=O)N(C)C)CC(=O)N1C [PP2570],NRAS/KRAS (ratio of KD value with respect to GDP-bound NRAS wild-type protein to KD value with respect to KRAS),"[1]; KD ratio NRAS/KRAS, class symbols",A (a compound having 10 or more and less than 20 is denoted as A)
same,HRAS/KRAS (ratio of KD value with respect to GDP-bound HRAS wild-type protein to KD value with respect to KRAS),"[2]; KD ratio HRAS/KRAS, class symbols",A (a compound having 10 or more and less than 20 is denoted as A)
"CCCN1C(=O)[C@@H]2CCN2C(=O)[C@H](C)N(C)C(=O)[C@H]([C@@H](C)CC)NC(=O)[C@H](CC(C)C)N(C)C(=O)C[C@@H](C(=O)N(C)C)NC(=O)[C@H](C2CCCC2)N(C)C(=O)C2(CCCC2)NC(=O)[C@@H]2CC(F)(F)CN2C(=O)[C@H](CCc2ccc(C(F)(F)F)c(Cl)c2)NC(=O)CN(C)C(=O)[C@@H]1Cc1ccc(C(F)(F)F)cc1 [PP0381] ([NMeL]I[NMeA][Aze][NPrPhe(4-CF3)][Sar][hPhe(3-Cl-4-CF3)][Pro(4,4-F2)][Ac5c][NMeGly(cPent)]D-NMe2; lactam N-11)",NRAS/KRAS (ratio of KD for GDP-bound NRAS wild-type to KD for KRAS),"[1]; KD ratio NRAS/KRAS, SPR",C (A compound having a KD ratio of 0.1 or more and less than 3 is denoted as C)
same,HRAS/KRAS (ratio of KD for GDP-bound HRAS wild-type to KD for KRAS),"[2]; KD ratio HRAS/KRAS, SPR",B (a compound having 3 or more and less than 10 is denoted as B)
CCCCN1CC(=O)N(C)[C@@H](Cc2ccc(C)cc2)C(=O)N(C)CC(=O)N[C@@H](CCc2ccc(C(F)(F)F)c(Cl)c2)C(=O)N2CCC[C@H]2C(=O)NC2(CCCC2)C(=O)N(C)[C@@H](C2CCCC2)C(=O)N(C)[C@H](C(=O)N2CCOCC2)CC(=O)N(C)[C@@H](CC(C)C)C(=O)N[C@@H]([C@@H](C)CC)C(=O)N(C)CC1=O [PP0021] ([NMeL]I[Sar][NBuGly][NMePhe(4-Me)][Sar][hPhe(3-Cl-4-CF3)]P[Ac5c][NMeGly(cPent)][NMeD]-Morpholide; lactam N-11),NRAS/KRAS (ratio of KD for GDP-bound NRAS wild-type to KD for KRAS),"[1]; KD ratio NRAS/KRAS, SPR",C (A compound having a KD ratio of 0.1 or more and less than 3 is denoted as C)
same,HRAS/KRAS (ratio of KD for GDP-bound HRAS wild-type to KD for KRAS),"[2]; KD ratio HRAS/KRAS, SPR",C (A compound having a KD ratio of 0.1 or more and less than 3 is denoted as C)
